The results in this text go back to US11596639B2, “Substituted indole Mcl-1 inhibitors” (Vanderbilt University, priority 2016, dated 2023).

SMILES strings stand for the structures. Read-outs that look alike come from different tables or passages of the source.

For test [1], the system named is H929 human cancer cell lines. The test is described as follows: Cellular viability / proliferation (Cell TiterGlo, 72 h). The format is cell-based. The method in brief: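 H929 cells plated at 1,000/well in 10% FBS medium received a 2-fold serial compound dilution (top 50 μM, DMSO <1%) 24 h later. After 72 h, viability was read by CellTiter-Glo luminescence. IC50 came from a four-parameter fit.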

In a further test the target is Mcl-1 (Homo sapiens (Human), UniProt Q07820). Nature of the test: Fluorescence polarization anisotropy (FPA) competition assay, FITC-Bak or FITC-Bim BH3 peptide. The format is binding. The conditions noted are these: read-out: Ki for Inhibition of Mcl-1 by FPA assay. On the technique in general: In fluorescence polarisation assays a small probe gives low polarisation when free and higher when bound to something large.

[2] abbreviates: Homo sapiens, NCI-H929, 72 h, read-out: GI50 on cellular proliferation of H929 human cancer cell lines, H929 cells, 72 h, Cell TiterGlo, 10% FBS.
The mark [3] stands for this setting: read-out: GI50 on cellular proliferation of H929 human cancer cell lines, H929 cells, 72 h, Cell TiterGlo, 10% FBS.

Sequence of Mcl-1 (Q07820 172-327): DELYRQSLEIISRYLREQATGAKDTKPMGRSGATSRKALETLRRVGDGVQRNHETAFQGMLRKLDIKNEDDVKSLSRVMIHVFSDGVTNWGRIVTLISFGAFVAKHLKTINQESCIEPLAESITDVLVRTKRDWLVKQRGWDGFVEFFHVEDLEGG

The Ki is the equilibrium dissociation constant of an inhibitor or competing ligand from its target. In the case of `Cc1cc(OCCCc2c3n(c4c(-c5c(C)nn(C)c5C)c(Cl)ccc24)[C@H](C)CN(c2cn(CCC4CCOCC4)c4ccc(C(=O)O)cc24)C3=O)cc(C)c1Cl` [Example 240, (R)-3-(7-Chloro-10-(3-(4-chloro-3,5-dimethylphenoxy)propyl)-4-methyl-1-oxo-6-(1,3,5-trimethyl-1H-pyrazol-4-yl)-3,4-dihydropyrazino[1,2-a]indol-2(1H)-yl)-1-(2-(tetrahydro-2H-pyran-4-yl)ethyl)-1H-indole-5-carboxylic acid], the GI50 in test [1] (setting [2]) worked out at 1900 nM. The Ki at Mcl-1 is less than 1 nM.

Consider `Cc1cc(OCCCc2c3n(c4c(-c5c(C)nn(C)c5C)c(Cl)ccc24)[C@H](C)CN(c2cccc4cc(C(=O)O)n(Cc5ccccc5)c24)C3=O)cc(C)c1Cl` [Example 241, 1-Benzyl-7-[(4R)-7-chloro-10-[3-(4-chloro-3,5-dimethyl-phenoxy)propyl]-4-methyl-1-oxo-6-(1,3,5-trimethylpyrazol-4-yl)-3,4-dihydropyrazino[1,2-a]indol-2-yl]indole-2-carboxylic acid], for which, in test [1] (setting [2]), the GI50 came out at 420 nM. In addition, on Mcl-1, the Ki was less than 1 nM.

`Cc1cc(OCCCc2c3n(c4c(-c5c(C)nn(C)c5C)c(Cl)ccc24)[C@H](C)CN(c2cccc4cc(C(=O)O)[nH]c24)C3=O)cc(C)c1Cl` [Example 242, 7-[(4R)-7-chloro-10-[3-(4-chloro-3,5-dimethyl-phenoxy)propyl]-4-methyl-1-oxo-6-(1,3,5-trimethylpyrazol-4-yl)-3,4-dihydropyrazino[1,2-a]indol-2-yl]-1H-indole-2-carboxylic acid]: in test [1] (setting [3]), the GI50 was 1300 nM. Also, on Mcl-1, the inhibitory constant (Ki) was less than 1 nM.

Regarding `Cc1cc(OCCCc2c3n(c4c(-c5c(C)nn(C)c5C)c(Cl)ccc24)[C@H](C)CN(c2cn(C)c4c(C#N)cc(C(=O)O)cc24)C3=O)cc(C)c1Cl` [Example 244, (R)-3-(7-Chloro-10-(3-(4-chloro-3,5-dimethylphenoxy)propyl)-4-methyl-1-oxo-6-(1,3,5-trimethyl-1H-pyrazol-4-yl)-3,4-dihydropyrazino[1,2-a]indol-2(1H)-yl)-7-cyano-1-methyl-1H-indole-5-carboxylic acid], the GI50 in test [1] (setting [2]) turned out to be 400 nM. In addition, at Mcl-1, the Ki was less than 1 nM.

As to `Cc1cc(OCCCc2c3n(c4c(-c5c(C)nn(C)c5C)c(Cl)ccc24)[C@H](C)CN(c2cccc4cc(C(=O)O)n(Cc5cccnc5)c24)C3=O)cc(C)c1Cl` [Example 245, 7-[(4R)-7-chloro-10-[3-(4-chloro-3,5-dimethyl-phenoxy)propyl]-4-methyl-1-oxo-6-(1,3,5-trimethylpyrazol-4-yl)-3,4-dihydropyrazino[1,2-a]indol-2-yl]-1-(3-pyridylmethyl)indole-2-carboxylic acid], in test [1] (setting [2]), the GI50 was 900 nM. The Ki on Mcl-1 is less than 1 nM.

For `Cc1cc(OCCCc2c3n(c4c(-c5c(C)nn(C)c5C)c(Cl)ccc24)[C@H](C)CN(c2cccc4cc(C(=O)O)n(Cc5ccccn5)c24)C3=O)cc(C)c1Cl` [Example 247, 7-[(4R)-7-chloro-10-[3-(4-chloro-3,5-dimethyl-phenoxy)propyl]-4-methyl-1-oxo-6-(1,3,5-trimethylpyrazol-4-yl)-3,4-dihydropyrazino[1,2-a]indol-2-yl]-1-(2-pyridylmethyl)indole-2-carboxylic acid], the GI50 in test [1] (setting [3]) is less than 200 nM. The Ki on Mcl-1 was less than 1 nM.

As for `Cc1cc(OCCCc2c3n(c4c(-c5c(C)nn(C)c5C)c(Cl)ccc24)[C@H](C)CN(c2cccc4cc(C(=O)O)n(Cc5ccncc5)c24)C3=O)cc(C)c1Cl` [Example 248, 7-[(4R)-7-chloro-10-[3-(4-chloro-3,5-dimethyl-phenoxy)propyl]-4-methyl-1-oxo-6-(1,3,5-trimethylpyrazol-4-yl)-3,4-dihydropyrazino[1,2-a]indol-2-yl]-1-(4-pyridylmethyl)indole-2-carboxylic acid], in test [1] (setting [2]), the GI50 came out at 570 nM. The Ki at Mcl-1 was less than 1 nM.

Turning to `Cc1cc(OCCCc2c3n(c4c(-c5c(C)nn(C)c5C)c(Cl)ccc24)[C@H](C)CN(c2cccc4cc(C(=O)O)n(Cc5ccccn5)c24)C3=O)cc(C)c1Cl` [Example 249, 7-[(4R)-7-chloro-10-[3-(4-chloro-3,5-dimethyl-phenoxy)propyl]-4-methyl-1-oxo-6-(1,3,5-trimethylpyrazol-4-yl)-3,4-dihydropyrazino[1,2-a]indol-2-yl]-1-(2-pyridylmethyl)indole-2-carboxylic acid], the GI50 in test [1] (setting [3]) came out at 490 nM. Besides, the Ki at Mcl-1 is less than 1 nM.

Turning to `Cc1cc(OCCCc2c3n(c4c(-c5c(C)nn(C)c5C)c(Cl)ccc24)[C@H](C)CN(c2cn(C)c4c(C)c(C(=O)O)ccc24)C3=O)cc(C)c1Cl` [Example 250, (R)-3-(7-Chloro-10-(3-(4-chloro-3,5-dimethylphenoxy)propyl)-4-methyl-1-oxo-6-(1,3,5-trimethyl-1H-pyrazol-4-yl)-3,4-dihydropyrazino[1,2-a]indol-2(1H)-yl)-1,7-dimethyl-1H-indole-6-carboxylic acid], the GI50 in test [1] (setting [2]) is 480 nM. At Mcl-1, the Ki is less than 1 nM.

As for `Cc1cc(OCCCc2c3n(c4c(-c5c(C)nn(C)c5C)c(Cl)ccc24)[C@H](C)CN(c2cn(C)c4ccc(-c5nnn[nH]5)cc24)C3=O)cc(C)c1Cl` [Example 251, (R)-7-Chloro-10-(3-(4-chloro-3,5-dimethylphenoxy)propyl)-4-methyl-2-(1-methyl-5-(1H-tetrazol-5-yl)-1H-indol-3-yl)-6-(1,3,5-trimethyl-1H-pyrazol-4-yl)-3,4-dihydropyrazino[1,2-a]indol-1(2H)-one], the GI50 in test [1] (setting [2]) amounted to 250 nM. The Ki at Mcl-1 was less than 1 nM.

For the compound `Cc1cc(OCCCc2c3n(c4c(-c5c(C)ncnc5C)c(Cl)ccc24)[C@H](C)CN(c2cccc4c2c(C(=O)O)cn4C)C3=O)cc(C)c1Cl` [Example 252, 4-[(4R)-7-chloro-10-[3-(4-chloro-3,5-dimethyl-phenoxy)propyl]-6-(4,6-dimethylpyrimidin-5-yl)-4-methyl-1-oxo-3,4-dihydropyrazino[1,2-a]indol-2-yl]-1-methyl-indole-3-carboxylic acid], in test [1] (setting [2]), the GI50 was found to be 2000 nM. Further, on Mcl-1, the Ki was 1.3 nM.

Turning to `Cc1cc(OCCCc2c3n(c4c(-c5c(C)nn(C)c5C)c(Cl)ccc24)[C@H](C)CN(c2ccnc4c(C(=O)O)cccc24)C3=O)cc(C)c1Cl` [Example 253, (R)-4-(7-Chloro-10-(3-(4-chloro-3,5-dimethylphenoxy)propyl)-4-methyl-1-oxo-6-(1,3,5-trimethyl-1H-pyrazol-4-yl)-3,4-dihydropyrazino[1,2-a]indol-2(1H)-yl)quinoline-8-carboxylic acid], the GI50 in test [1] (setting [2]) came to 1100 nM. At Mcl-1, the Ki came to 1.2 nM.

For `Cc1cc(OCCCc2c3n(c4c(-c5c(C)nn(C)c5C)c(Cl)ccc24)[C@H](C)CN(c2cccc4cc(C(=O)O)n(CC5CC5)c24)C3=O)cc(C)c1Cl` [Example 254, 7-[(4R)-7-chloro-10-[3-(4-chloro-3,5-dimethyl-phenoxy)propyl]-4-methyl-1-oxo-6-(1,3,5-trimethylpyrazol-4-yl)-3,4-dihydropyrazino[1,2-a]indol-2-yl]-1-(cyclopropylmethyl)indole-2-carboxylic acid], in test [1] (setting [2]), the GI50 was found to be 580 nM. In addition, the Ki on Mcl-1 was less than 1 nM.

Take `COCCn1c(C(=O)O)cc2cccc(N3C[C@@H](C)n4c(c(CCCOc5cc(C)c(Cl)c(C)c5)c5ccc(Cl)c(-c6c(C)nn(C)c6C)c54)C3=O)c21` [Example 256, 7-[(4R)-7-chloro-10-[3-(4-chloro-3,5-dimethyl-phenoxy)propyl]-4-methyl-1-oxo-6-(1,3,5-trimethylpyrazol-4-yl)-3,4-dihydropyrazino[1,2-a]indol-2-yl]-1-(2-methoxyethyl)indole-2-carboxylic acid]: in test [1] (setting [2]), the GI50 was determined as 270 nM. For the same compound, the Ki on Mcl-1 is less than 1 nM.

Turning to `CC(=O)Nc1ccc2c(c1)c(N1C[C@@H](C)n3c(c(CCCOc4cc(C)c(Cl)c(C)c4)c4ccc(Cl)c(-c5c(C)nn(C)c5C)c43)C1=O)cn2C` [Example 257, N-[3-[(4R)-7-chloro-10-[3-(4-chloro-3,5-dimethyl-phenoxy)propyl]-4-methyl-1-oxo-6-(1,3,5-trimethylpyrazol-4-yl)-3,4-dihydropyrazino[1,2-a]indol-2-yl]-1-methyl-indol-5-yl]acetamide], the GI50 in test [1] (setting [2]) is 470 nM. The Ki at Mcl-1 was 2.3 nM.

Consider `Cc1cc(OCCCc2c3n(c4c(-c5c(C)nn(C)c5C)c(Cl)ccc24)[C@H](C)CN(c2cn(C)c4c(-c5nnn[nH]5)cccc24)C3=O)cc(C)c1Cl` [Example 258, (R)-7-Chloro-10-(3-(4-chloro-3,5-dimethylphenoxy)propyl)-4-methyl-2-(1-methyl-7-(1H-tetrazol-5-yl)-1H-indol-3-yl)-6-(1,3,5-trimethyl-1H-pyrazol-4-yl)-3,4-dihydropyrazino[1,2-a]indol-1(2H)-one], for which the GI50 in test [1] (setting [2]) is 3600 nM. For the same compound, the inhibition constant (Ki) on Mcl-1 was less than 1 nM.

Take `Cc1cc(OCCCc2c3n(c4c(-c5c(C)nn(C)c5C)c(Cl)ccc24)[C@H](C)CN(c2cc(Cl)cc4cc(C(=O)O)oc24)C3=O)cc(C)c1Cl` [Example 259, (R)-5-Chloro-7-(7-chloro-10-(3-(4-chloro-3,5-dimethylphenoxy)propyl)-4-methyl-1-oxo-6-(1,3,5-trimethyl-1H-pyrazol-4-yl)-3,4-dihydropyrazino[1,2-a]indol-2(1H)-yl)benzofuran-2-carboxylic acid]: the GI50 in test [1] (setting [3]) was found to be 3500 nM. Also, the Ki on Mcl-1 was less than 1 nM.

As to `CC(=O)c1ccc2c(c1)c(N1C[C@@H](C)n3c(c(CCCOc4cc(C)c(Cl)c(C)c4)c4ccc(Cl)c(-c5c(C)nn(C)c5C)c43)C1=O)cn2C` [Example 260, (R)-2-(5-Acetyl-1-methyl-1H-indol-3-yl)-7-chloro-10-(3-(4-chloro-3,5-dimethylphenoxy)propyl)-4-methyl-6-(1,3,5-trimethyl-1H-pyrazol-4-yl)-3,4-dihydropyrazino[1,2-a]indol-1(2H)-one], in test [1] (setting [2]), the GI50 stood at 550 nM. Moreover, the Ki at Mcl-1 is less than 1 nM.
